Measurements: article PMC8926291 (Chemical Science, 2022)
Starred links: 1 amine or outer side, 2 acyl side, 3 side chain; linkers in the order of their positions; H or OH if unused. Positions of bridges follow the written chain, without caps; N, C: chain ends. Residues, ends and D or L forms follow the SMILES beside them. *: point of attachment. C18 diacid = O=C(O)CCCCCCCCCCCCCCCCC(=O)*; γGlu = O=C(O)[C@H](CCC(=O)[*:2])N[*:1]; AEEA = NCCOCCOCC(=O)O

Tests used:
[1] = target: T1, hGIP-R ECD (Homo sapiens, UniProt P48546); assay: single-concentration BLI binding of crude peptides to biotinylated hGIP-R ECD
T1 sequence (P48546 22-138): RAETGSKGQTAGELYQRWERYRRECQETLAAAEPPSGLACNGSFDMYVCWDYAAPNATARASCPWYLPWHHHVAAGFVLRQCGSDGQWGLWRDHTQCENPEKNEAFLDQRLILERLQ

[2] = pharmacokinetic study in rats, i.v. dosing; assay type: in vivo; conditions: male, Sprague-Dawley, rat, plasma, iv, 2 nmol/kg, mean
[3] = in vitro plasma stability in human plasma; conditions: 37 °C, over 5 h
[4] = target: T1, hGIP-R ECD; assay: multi-concentration BLI binding of purified peptides to hGIP-R ECD
[5] = cited from earlier work

CSCC[C@H](NC(C)=O)C(=O)N[C@H]1CSSC[C@@H](C(=O)NCC(=O)N[C@@H](CO)C(=O)NCC(=O)N[C@@H](CO)C(=O)N[C@@H](CC(=O)O)C(=O)N[C@@H](Cc2ccc(O)cc2)C(=O)N[C@@H](CCCCN)C(=O)N[C@@H](CC(=O)O)C(=O)N[C@@H](CC(=O)O)C(=O)N[C@@H](CC(=O)O)C(=O)N[C@@H](CC(=O)O)C(=O)N[C@@H](CCCCN)C(N)=O)NC(=O)[C@H](Cc2ccccc2)NC(=O)[C@@H]2CCCN2C(=O)[C@H](Cc2c[nH]c3ccccc23)NC(=O)[C@H](CC(C)C)NC(=O)[C@H](CC(C)C)NC(=O)[C@H](CO)NC(=O)[C@H](Cc2ccccc2)NC(=O)[C@H](Cc2ccccc2)NC(=O)[C@H](CCCNC(=N)N)NC(=O)[C@H](Cc2ccccc2)NC1=O [B_68] (Ac-MCFRFFSLLWPFCGSGSDYKDDDDK-NH2; disulfide 2-13)
binding to hGIP-R ECD (in words) [1]: did not reveal any binding

CSCC[C@H](NC(=O)COCCOCCNC(=O)COCCOCCNC(=O)CC[C@H](NC(=O)CCCCCCCCCCCCCCCCC(=O)O)C(=O)O)C(=O)N[C@H]1CSSC[C@@H](C(=O)NCC(=O)N[C@@H](CO)C(=O)NCC(=O)N[C@@H](CO)C(=O)N[C@@H](CC(=O)O)C(=O)N[C@@H](Cc2ccc(O)cc2)C(=O)N[C@@H](CCCCN)C(=O)N[C@@H](CC(=O)O)C(=O)N[C@@H](CC(=O)O)C(=O)N[C@@H](CC(=O)O)C(=O)N[C@@H](CC(=O)O)C(=O)N[C@@H](CCCCN)C(N)=O)NC(=O)[C@H](Cc2ccccc2)NC(=O)[C@@H]2CCCN2C(=O)[C@H](Cc2c[nH]c3ccccc23)NC(=O)[C@H](CC(C)C)NC(=O)[C@H](CCSC)NC(=O)[C@H](Cc2c[nH]cn2)NC(=O)[C@H](Cc2ccccc2)NC(=O)[C@H](Cc2c[nH]cn2)NC(=O)[C@H]([C@@H](C)O)NC(=O)[C@H](Cc2ccccc2)NC1=O [B_1275.1] ({C18 diacid-γGlu-AEEA-AEEA}-MCFTHFHMLWPFCGSGSDYKDDDDK-NH2; disulfide 2-13)
half-life ([2]; t½ (h)): 10.7 h

CSCC[C@H](NC(=O)COCCOCCNC(=O)COCCOCCNC(=O)CC[C@H](NC(=O)CCCCCCCCCCCCCCCCC(=O)O)C(=O)O)C(=O)N[C@H]1CSSC[C@@H](C(N)=O)NC(=O)[C@H](Cc2ccccc2)NC(=O)[C@@H]2CCCN2C(=O)[C@H](Cc2c[nH]c3ccccc23)NC(=O)[C@H](CC(C)C)NC(=O)[C@H](CCSC)NC(=O)[C@H](Cc2c[nH]cn2)NC(=O)[C@H](Cc2ccccc2)NC(=O)[C@H](Cc2c[nH]cn2)NC(=O)[C@H]([C@@H](C)O)NC(=O)[C@H](Cc2ccccc2)NC1=O [B_1275.3] ({C18 diacid-γGlu-AEEA-AEEA}-MCFTHFHMLWPFC-NH2; disulfide 2-13)
In vitro plasma stability (in words) [3]: no decrease in plasma stability

CC(=O)N[C@@H](C)C(=O)N[C@H]1CSSC[C@@H](C(=O)NCC(=O)N[C@@H](CO)C(=O)NCC(=O)N[C@@H](CO)C(=O)N[C@@H](CC(=O)O)C(=O)N[C@@H](Cc2ccc(O)cc2)C(=O)N[C@@H](CCCCN)C(=O)N[C@@H](CC(=O)O)C(=O)N[C@@H](CC(=O)O)C(=O)N[C@@H](CC(=O)O)C(=O)N[C@@H](CC(=O)O)C(=O)N[C@@H](CCCCN)C(N)=O)NC(=O)[C@H](Cc2ccccc2)NC(=O)[C@@H]2CCCN2C(=O)[C@H](Cc2c[nH]c3ccccc23)NC(=O)[C@H](CC(C)C)NC(=O)[C@H](CC(C)C)NC(=O)[C@H](CC(=O)O)NC(=O)[C@H](Cc2ccccc2)NC(=O)[C@H](Cc2c[nH]cn2)NC(=O)[C@H]([C@@H](C)O)NC(=O)[C@H](Cc2ccccc2)NC1=O [B_1275.4] (Ac-ACFTHFDLLWPFCGSGSDYKDDDDK-NH2; disulfide 2-13)
half-life ([2]; t½ (min)): 0.0583 h | In vitro plasma stability (in words) [3]: no decrease in plasma stability

CC(=O)N[C@@H](C)C(=O)N[C@H]1CSSC[C@@H](C(=O)O)NC(=O)[C@H](Cc2ccccc2)NC(=O)[C@@H]2CCCN2C(=O)[C@H](Cc2c[nH]c3ccccc23)NC(=O)[C@H](CC(C)C)NC(=O)[C@H](CC(C)C)NC(=O)[C@H](CC(=O)O)NC(=O)[C@H](Cc2ccccc2)NC(=O)[C@H](Cc2c[nH]cn2)NC(=O)[C@H]([C@@H](C)O)NC(=O)[C@H](Cc2ccccc2)NC1=O [B_1275.5] (Ac-ACFTHFDLLWPFC-OH; disulfide 2-13)
half-life ([2]; t½ (min)): 0.03 h | In vitro plasma stability (in words) [3]: no decrease in plasma stability

CC(C)C[C@@H]1NC(=O)[C@H](CC(=O)O)NC(=O)[C@H](Cc2ccccc2)NC(=O)[C@H](Cc2c[nH]cn2)NC(=O)[C@H]([C@@H](C)O)NC(=O)[C@H](Cc2ccccc2)NC(=O)[C@@H](NC(=O)[C@H](C)NC(=O)COCCOCCNC(=O)COCCOCCNC(=O)CC[C@H](NC(=O)CCCCCCCCCCCCCCCCC(=O)O)C(=O)O)CSSC[C@@H](C(=O)O)NC(=O)[C@H](Cc2ccccc2)NC(=O)[C@@H]2CCCN2C(=O)[C@H](Cc2c[nH]c3ccccc23)NC(=O)[C@H](CC(C)C)NC1=O [B_1275.6] ({C18 diacid-γGlu-AEEA-AEEA}-ACFTHFDLLWPFC-OH; disulfide 2-13)
half-life ([2]; t½ (h)): 4.2 h | In vitro plasma stability (in words) [3]: no decrease in plasma stability

CC(=O)N[C@@H](C)C(=O)N[C@H]1CSSC[C@@H](C(=O)NCC(=O)N[C@@H](CO)C(=O)NCC(=O)N[C@@H](CO)C(=O)N[C@@H](CC(=O)O)C(=O)N[C@@H](Cc2ccc(O)cc2)C(=O)N[C@@H](CCCCN)C(=O)N[C@@H](CC(=O)O)C(=O)N[C@@H](CC(=O)O)C(=O)N[C@@H](CC(=O)O)C(=O)N[C@@H](CC(=O)O)C(=O)N[C@@H](CCCCN)C(N)=O)NC(=O)[C@@H]2CCCN2C(=O)[C@@H]2CCCN2C(=O)[C@H](Cc2c[nH]c3ccccc23)NC(=O)[C@H](CC(C)C)NC(=O)[C@H](CC(C)C)NC(=O)[C@H](Cc2c[nH]cn2)NC(=O)[C@H](Cc2ccccc2)NC(=O)[C@H](Cc2c[nH]cn2)NC(=O)[C@H]([C@@H](C)O)NC(=O)[C@H](Cc2ccccc2)NC1=O [B_1275.10] (Ac-ACFTHFHLLWPPCGSGSDYKDDDDK-NH2; disulfide 2-13)
binding to hGIP-R ECD (in words) [4]: did not show any binding

Ac-MSFIHWDMLWPFSGSGSDYKDDDDK-NH2 [B_5.2]
binding to hGIP-R ECD (in words) [4]: None of the linear variants

Ac-MSFQYFHILWPFSGSGSDYKDDDDK-NH2 [B_3.2]
binding to hGIP-R ECD (in words) [4]: None of the linear variants

Ac-MSFRFFSLLWPFSGSGSDYKDDDDK-NH2 [B_68.2]
binding to hGIP-R ECD (in words) [4]: None of the linear variants

Ac-MSFTHFHMLWPFSGSGSDYKDDDDK-NH2 [B_1275.2]
binding to hGIP-R ECD (in words) [4]: None of the linear variants

semaglutide
t1/2 in rats [5]: 7 h
